Data published in US20020013478A1, “Calanolide analogues and methods of their use” (Sarawak Medichem Pharmaceuticals,Inc., priority 1994, published 2002).
Converted amounts (≈) assume the structure as drawn. Like-named read-outs stand apart in the source and are kept apart here.

What was measured:
[1] = test system: Raji or Daudi cells; test: Toxicity run with the EBV assay; assay type: cell-based, human; details: Table II; for IC50: Homo sapiens
From the text: IC50 (50% inhibitory concentration) is the concentration required to inhibit cell proliferation by 50%

[2] = test system: human foreskin fibroblast cells; test: Toxicity run with the VZV assay, human foreskin fibroblast cells; assay type: cell-based; details: Table II; for IC50: Homo sapiens, Fibroblast
Experimental: (§1) [table] […] The media from the wells is then aspirated and 2 mL of each drug concentration is then added to each well. The cells are then incubated in a CO2 incubator at 37° C. for 72 h. At the end of this time, the media-drug solution is removed and the cells washed. […] The cell-media mixture is then pipetted up and down vigorously to break up the cell suspension, and 0.2 mL of the mixture is added to 9.8 mL of Isoton III and counted using a Coulter Counter. Each sample is counted three times with three replicate wells per sample. The procedure for plating cells and adding drug is the same as for the MTT Assay. After drug addition, the plates are incubated for seven days in a CO2 incubator at 37° C. […] This is incubated in the CO2 incubator for one hour. The dye is aspirated and the cells are washed using a Nunc Plate Washer. […] The plates are rotated for 15 minutes and the optical densities are read at 550 nm on a plate reader.

[3] = test system: HCMV; test: HCMV semi-automated CPE-inhibition assay in human foreskin fibroblast cells; assay type: cell-based, human cytomegalovirus; details: Table II; for EC50: Human betaherpesvirus 5, Fibroblast
[4] = test system: EBV; test: EBV assay: superinfection of Raji or Daudi cells with P3HR-1, immunofluorescence for EA and VCA; assay type: cell-based, Epstein-Barr virus; details: Table II; for EC50: human gammaherpesvirus 4
From the text: There are two prototypes of infectious EBV. One is exemplified by the virus derived from supernatant fluids of the P3HR-1cell line. This cell line produces nontransforming virus that causes the production of early antigen (EA) after primary infection or superinfection of B cell lines. The other prototype is exemplified by the B-95-8 virus. This virus immortalized cord blood lymphocytes and induced tumors in marmosets.
The virus used in our assays is P3HR-1.
Ramos is an exceptional B cell line derived from Burkitt's lymphoma tumor but containing no detectable EBV genome copies and is EBNA negative. Ramos/AW was obtained by in vitro infection of Ramos with the P3HR-1 virus and contains one resident EBV genome copy/cell. Raji is a Burkitt's lymphoma cell line containing 60 EBV genomes/cell, and will be the primary cell used for screening antiviral activity against EBV EA expression. Daudi is a low level producer that contains 152 EBV genome copies/cell. It spontaneously expresses EBV EA in 0.25%-0.5% of the cells. It will be used in follow-up studies to confirm activity. These cell lines respond to superinfection by EBV by expressing EA(D), EA(R), and VCA. All cell lines are maintained in RPMI-1640 medium supplemented by 10% FCS, L-glutamine and 100 μg/mL gentamicin. The cultures are fed twice weekly and the cell concentration adjusted to 3×10^5/mL. The cells are kept at 37° C. in a humidified atmosphere with 5% CO2.
Cells are infected with the P3HR-1 strain of EBV and the drugs to be tested are added after adsorption (45 minutes at 37° C.) and washing of the cell cultures. The cultures are incubated for two days in complete medium to allow viral gene expression. Following the 48 hr incubation period, the number of cells of each sample are counted and smears made. Monoclonal antibodies to the different EA components and VCA are then added to the cells incubated and washed. This is followed by a fluorescein conjugated rabbit anti-mouse Ig antibody; and the number of fluorescence positive cells in the smears are counted. The total number of cells in the cultures positive for EA or VCA are then calculated and compared.

[5] = test system: VZV; test: VZV plaque reduction assay in human foreskin fibroblast cells; assay type: cell-based, varicella zoster virus; details: Table II; for EC50: Human alphaherpesvirus 3, Fibroblast
Experimental: Two days prior to use, HFF cells are plated into six-well plates and incubated at 37° C. with 5% CO2 and 90% humidity. On the date of assay, the drug is made up at twice the desired concentration in 2x MEM and then serially diluted 1:5 in 2x MEM using six concentrations of drug. The initial starting concentration is usually 200 gg/mL down to 0.06 μg/mL. The virus to be used is diluted in MEM containing 10% FBS to a desired concentration which will give 20-30 plaques per well. The media is then aspirated from the wells and 0.2 mL of virus is added to each well in duplicate with 0.2 mL of media being added to drug toxicity wells. The plates are then incubated for one hour with shaking every fifteen minutes. After the incubation period, an equal amount of 1% agarose was added to an equal volume of each drug dilution. This will give final drug concentrations beginning with 100 μg/mL and ending with 0.03 μg/mL and a final agarose overlay concentration of 0.5%. The drug agarose mixture is applied to each well in 2 mL volume and the plates then incubated for three days, after which the cells were stained with a 1.5% solution of neutral red. At the end of 4-6hr incubation period, the stain is aspirated, and plaques counted using a stereomicroscope at lOx magnification.
The procedure is essentially the same as for the HSV plaque assay described above with two exceptions:
1. After addition of the drug, the plates are incubated for ten days.
2. On days three and six, an additional 1 mL overlay with equal amounts of 2x MEM and 1% agarose are added.

[6] = test system: HBV; test: HBV replication in cultures of 2.2.15 cells, extracellular HBV virion DNA (primary assay); details: for EC50: read-out: HBV EC50
Experimental: Both intracellular and extracellular HBV DNA are analyzed in order to (i) allow for verification of compound efficacy and (ii) provide possible data on the target site in the HBV replication pathway for the compound from examination of the pattern of viral replicative forms. The culture medium is changed daily during the treatment period to (i) prevent the buildup of potentially toxic metabolites derived from test compounds and (ii) provide an analysis of HBV virion production during discrete 24-hour intervals which enables a quantitative comparison of any effect on virion production.
The analysis of HBV DNA is performed using blot hybridization techniques (Southern and slot blot) and [^32P]-labeled HBV-specific probes. HBV DNA levels are measured by comparison to known amounts of HBV DNA standards applied to every nitrocellulose membrane (gel or slot blot). An AMBIS beta scanner, which measures the radioactive decay of the hybridized probes directly from the nitrocellulose membranes, is used for the quantitative analysis. Standard curves, generated by multiple analyses, are used to correlate CPM measurements made by the beta scanner with relative levels of target HBV DNA. The levels of HBV virion DNA released into the culture medium are analyzed by a slot blot hybridization procedure.

[7] = test system: 2.2.15 cells; test: Toxicity in 2.2.15 cells, neutral red dye uptake; assay type: cell-based, human; details: Table II, read-out: HBV IC50
Experimental: Cells of 2.2.15 were grown to confluence in 96-well flat-bottomed tissue culture plates and treated with compounds (in 0.2 mL culture medium/well) as described above. Four concentrations of each compound were assayed, each in triplicate cultures, in 3- to 10-fold steps. Untreated control cultures were maintained on each 96-well plate. On each 96-well plate, wells containing no cells were used to correct for light scattering.

[8] = test system: human foreskin fibroblast cells; test: Toxicity run with the HCMV assay, human foreskin fibroblast cells; assay type: cell-based; details: Table II; for IC50: Homo sapiens, Fibroblast
Experimental: as §1

[9] = test system: CEM-SS cells; test: CEM-SS MTT assay, cytotoxicity (Table I); assay type: cell-based, human
[10] = test system: HIV-1; details: CEM-SS MTT assay
[11] = test system: HCMV isolates Towne, AD169, E. Mann, Coffman, C9208; test: Anti-CMV plaque reduction assay against various laboratory and clinical isolates (Example 40); assay type: cell-based, human cytomegalovirus
Experimental: On the date of assay, the drug is made up at twice the desired concentration in 2x MEM and then serially diluted 1:5 in 2x MEM using six concentrations of drug. The initial starting concentration is usually 200 gg/mL down to 0.06 μg/mL. […] The media is then aspirated from the wells and 0.2 mL of virus is added to each well in duplicate with 0.2 mL of media being added to drug toxicity wells. The plates are then incubated for one hour with shaking every fifteen minutes. […] This will give final drug concentrations beginning with 100 μg/mL and ending with 0.03 μg/mL and a final agarose overlay concentration of 0.5%. The drug agarose mixture is applied to each well in 2 mL volume and the plates then incubated for three days, after which the cells were stained with a 1.5% solution of neutral red. At the end of 4-6hr incubation period, the stain is aspirated, and plaques counted using a stereomicroscope at lOx magnification. The procedure again is nearly the same as for HSV with a few minor changes. […] The assay is incubated for 14 days with the additional 1 mL overlays being applied on days four and eight. The procedure for the liquid overlay plaque assay is similar to that using the agarose overlay. The procedure for adding the virus is the same as for the regular plaque assay. The drugs are made up in a concentration to be used in MEM with 2% FBS. The drugs are not made up at 2x concentration as in the previous assays but are made up at the desired concentration. For HSV-1 and HSV-2 assays, an antibody preparation obtained from Baxter Health Care Corporation is diluted 1:500 and added to the media that the drug is diluted in. For CMV and VZV, no antibody in the overlay is utilized. For the CMV assay, additional medium without new drug is added on day five and allowed to incubate for a total of 10 days. For VZV, additional medium is added on day five and incubated for a total of 10 days. At the end of the incubation period for all of the assays, 2 mL of 1:10 dilution of stock neutral is added to each well incubated for six hours. The liquid is then aspirated off and plaques enumerated using a stereomicroscope. Five calanolide analogues, prepared as described above, were further evaluated for their anti-HCMV activity in plaque reduction assay against various laboratory and clinical isolates (Towne, AD 169, E. Mann, Coffinan, and […]).

Row | Structure (SMILES) | EBV IC50 [1] [µg/mL] | VZV IC50 [2] [µg/mL] | HCMV EC50 [3] [µg/mL] | EBV EC50 [4] [µg/mL] | VZV EC50 [5] [µg/mL] | EC50 ([6]; Table II) [µM] | IC50 [7] [µM] | HCMV IC50 [8] [µg/mL] | IC50 [1] [µg/mL] | EC50 [3] [µg/mL] | EC50 [4] [µg/mL] | EC50 ([6]; Hepatitis B virus) [µM] | IC50 ([7]; Homo sapiens) [µM] | IC50 [8] [µg/mL] | other results
1 | CCCc1cc(=O)oc2c3c(c4c(c12)OC(C)(C)C=C4)OC(C(C)C)C(C)C3=O (racemic) [(+)-15e] | >50 | >100 | >20 | >50 | >100 | > 10 | 86 | 75.3 |  |  |  |  |  |  | 
2 | CCCc1cc(=O)oc2c3c(c4c(c12)OC(C)(C)C=C4)OC(C)(C)C(C)C3=O (racemic) [(±)-15b, (±)-10,11-Dihydro-6,6,10,10,11-pentamethyl-4-propyl-2H, 6H, 12H-benzo[1,2-b:3,4-b′:5,6-b″]tripyran-2,12-dione] |  |  |  |  |  |  |  |  | > 50 | > 20 | > 50 | > 10 | 307 | 52.3 (≈ 137 µM) | IC50 [2]: 66.7 µg/mL (≈ 174 µM); IC50 ([9]; Homo sapiens): 21 µM; EC50 [5]: > 20 µg/mL
3 | CCCc1cc(=O)oc2c3c(c4c(c12)OC(C)(C)C=C4)OC(CC)C(C)C3=O (racemic) [(±)-15c, (±)-10,11-trans-10,11-Dihydro-10-ethyl-4-propyl-6,6,11-trimethyl-2H,6H,12H-benzo[1,2-b:3,4-b ″]tripyran-2,12-dione] | >50 | 68.0 | >20 | >50 | >20 | > 10 | 152 | 77.6 |  |  |  |  |  |  | IC50 [9]: 6.8 µM; Maximum Protection (%) [10]: 47%
4 | CCCc1cc(=O)oc2c3c(c4c(c12)OC(C)(C)CC4)OC(C)C(C)C3=O (racemic) [(±)-18a, (±)-10,11-trans4-Propyl-7,8,10,11-tetrahydro-6,6,10,11-tetramethyl-2H,6H,12H-benzo [1,2-b:3,4-b′5,6-b″]tripyran-2,12-dione] | >50 | 33.3 | >4.0 | 24.5 | 15.4 | > 10 | 88 | 19.5 |  |  |  |  |  |  | IC50 [9]: 9.19 µM; EC50 [10]: 2.47 µM; Maximum Protection (%) [10]: 60%
5 | CCCc1cc(=O)oc2c3c(c4c(c12)OC(C)(C)CC4)OC(C)C(C)C3=O (single isomer, unassigned; (+)) [(+)-18a] | >50 | >100 | >100 | >50 | >100 | > 10 | 88 | >100 |  |  |  |  |  |  | 
6 | CCCc1cc(=O)oc2c3c(c4c(c12)OC(C)(C)C=C4)OC(C)C(C)C3=O (single isomer, unassigned; (-)) [(−)-7] | 23.7 |  | >20 | >20 |  | > 10 | 327 | 23.7 |  |  |  |  |  |  | 
7 | CCCc1cc(=O)oc2c3c(c4c(c12)OC(C)(C)C=C4)O[C@H](C)[C@H](C)C3=O [(+)-7a] |  |  |  |  |  |  |  |  | 11.9 (≈ 32.3 µM) | > 4 | > 4 | 2.5 | 382 | 11.6 (≈ 31.5 µM) | EC90 ([6]; Hepatitis B virus, read-out: HBV EC90): 11 µM
8 | CCCc1cc(=O)oc2c3c(c4c(c12)OC(C)(C)C=C4)O[C@@H](C)[C@H](C)[C@@H]3O [(−)-calanolide B, (-)-Calanolide B] | >50 | 20.0 | 2.6 | >50 | >4.0 | > 10 | 1000 | 78.4 |  |  |  |  |  |  | EC50 ([11]; isolate AD169): 3.16 µM; EC50 ([11]; isolate C9208): 2.01 µM; EC50 ([11]; isolate Coffman): 3.18 µM; EC50 ([11]; isolate E. Mann): 3.16 µM; EC50 ([11]; isolate Towne): 3.2 µM
9 | CCCc1cc(=O)oc2c1c1c(c3oc(C)c(C)c(=O)c32)C=CC(C)(C)O1 [Compound 5, 6,6,10,11-tetramethyl-4-propyl-2H,6H,12H-benzo[1,2-b:3,4-b′:5,6-b″]tripyran-2,12-dione] |  |  |  |  |  |  |  |  | > 50 | > 100 | > 50 | > 10 | 2080 | > 100 | IC50 [2]: 52.2 µg/mL (≈ 142 µM); EC50 [5]: > 20 µg/mL
